The results in this text go back to US20090010888A1, “Use of cytochrome P450 reductase as insecticidal target” (priority 2004, published 2009).

Where “and” joins values, the source holds several entries; their conditions need not be identical. Equal values may be shown once. Read-outs that look alike come from different tables or passages of the source.

For series [1], the target named is T1, human CPR (Homo sapiens, UniProt P16435).
T1 sequence (P16435 43-677 limits assumed): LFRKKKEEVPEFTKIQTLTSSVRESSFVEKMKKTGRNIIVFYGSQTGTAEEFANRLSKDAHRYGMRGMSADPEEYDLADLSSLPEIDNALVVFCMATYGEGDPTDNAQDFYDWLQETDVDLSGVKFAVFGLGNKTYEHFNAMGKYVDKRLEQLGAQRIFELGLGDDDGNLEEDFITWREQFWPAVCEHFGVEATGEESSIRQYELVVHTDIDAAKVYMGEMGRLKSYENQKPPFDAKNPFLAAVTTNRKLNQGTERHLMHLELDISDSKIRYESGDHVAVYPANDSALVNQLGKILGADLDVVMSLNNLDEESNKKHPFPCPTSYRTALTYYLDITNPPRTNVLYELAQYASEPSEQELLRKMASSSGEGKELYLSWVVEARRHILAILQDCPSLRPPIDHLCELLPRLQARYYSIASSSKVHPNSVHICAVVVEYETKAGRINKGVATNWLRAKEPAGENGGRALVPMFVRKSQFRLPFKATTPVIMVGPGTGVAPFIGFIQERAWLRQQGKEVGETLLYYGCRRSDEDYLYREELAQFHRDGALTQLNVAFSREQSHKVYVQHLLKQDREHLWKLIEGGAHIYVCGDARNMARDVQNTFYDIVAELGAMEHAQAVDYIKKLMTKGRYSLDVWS
In words: Cytochrome c reduction by purified human CPR (inhibition and kinetics). It is filed as biochemical. The note with it: for IC50: 25° C., 50 μM cytochrome c, 15 μM NADPH. As to the method: (§1) Errors are deviation from the fit of the curve (GraFit 5.06).
(§2) Cytochrome c assays and enzyme kinetic measurements were carried out 25° C. as described^19, using 0.75 pmol purified AgCPR or hCPR. Apparent kinetic parameters (non-linear fitting: Michaelis-Menten equation) and IC50 values were calculated using GraFit version 5.06.

The test system of series [2] is A. gambiae CYP6Z2 and AgCPR. In words: 7-benzyloxyresorufin (BR) dealkylation, E. coli membranes coexpressing CYP6Z2 and AgCPR. The following applies: read-out: IC50 for inhibition of mosquito CYP6Z2 BR dealkylation; 5 μM BR, 125 microM NADPH, 37° C. As to the method: (§3) Measurement of P450 activity was carried out using E. coli membranes coexpressing A. gambiae CYP6Z2 and AgCPR or human CYP3A4 and human CPR. […] Rates were recorded for 5 min at 37° C. using a fluorescence plate reader (Labsystems Fluoroskan Ascent-FL) set to measure λEx 530 λEm585 (BR assay) or λEx 405 λEm530 (BQ assay). Percentage activities were calculated and IC50 curves were plotted using GraFit version 5.
(§4) For P450 assays, E. coli membranes co-expressing human CYP3A4 and CPR were produced as described. […] Plates were preincubated for 5 min at 37° C. before addition of 5 μl of 5 mM NADPH. Rates were recorded for 5 min at 37° C. using a fluorescence plate reader (Labsystems Fluoroskan Ascent-FL) set to measure λEx 530 λEm585 (BR assay) or λEx 405 λEm530 (BQ assay).
(§5) Percentage activities were calculated and IC50 curves were plotted using GraFit version 5.

Series [3] concerns the target T2, human CYP3A4 and human CPR (Homo sapiens, UniProt P16435).
T2 sequence (P16435 1-677): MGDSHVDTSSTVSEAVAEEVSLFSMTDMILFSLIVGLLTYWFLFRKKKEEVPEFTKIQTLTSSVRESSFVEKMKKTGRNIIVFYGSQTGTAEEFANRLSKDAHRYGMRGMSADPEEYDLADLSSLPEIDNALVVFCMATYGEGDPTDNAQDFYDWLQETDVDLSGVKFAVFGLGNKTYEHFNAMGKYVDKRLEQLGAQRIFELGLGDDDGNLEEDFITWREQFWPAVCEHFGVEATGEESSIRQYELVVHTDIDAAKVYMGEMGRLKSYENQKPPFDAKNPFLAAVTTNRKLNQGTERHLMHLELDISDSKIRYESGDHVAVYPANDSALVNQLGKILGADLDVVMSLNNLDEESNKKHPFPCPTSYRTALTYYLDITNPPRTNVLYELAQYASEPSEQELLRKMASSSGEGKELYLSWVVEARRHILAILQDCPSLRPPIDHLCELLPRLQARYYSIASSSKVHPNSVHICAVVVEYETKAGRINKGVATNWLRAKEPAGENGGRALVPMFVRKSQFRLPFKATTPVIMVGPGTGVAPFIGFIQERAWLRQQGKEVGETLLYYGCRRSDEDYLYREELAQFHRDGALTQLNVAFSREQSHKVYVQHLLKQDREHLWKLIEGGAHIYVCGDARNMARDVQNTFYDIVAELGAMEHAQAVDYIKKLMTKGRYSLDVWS
As to the method: as §3, §4, §5

The target in series [4] is T3, A. gambiae CPR (Anopheles gambiae, UniProt Q86QH5, H459Y/V230A). In words: 2′-5′-ADP Sepharose binding of CPR from whole fly extracts. The following applies: crude extracts of A. gambiae.
T3 sequence (Q86QH5 entry or part of it V230A/H459Y): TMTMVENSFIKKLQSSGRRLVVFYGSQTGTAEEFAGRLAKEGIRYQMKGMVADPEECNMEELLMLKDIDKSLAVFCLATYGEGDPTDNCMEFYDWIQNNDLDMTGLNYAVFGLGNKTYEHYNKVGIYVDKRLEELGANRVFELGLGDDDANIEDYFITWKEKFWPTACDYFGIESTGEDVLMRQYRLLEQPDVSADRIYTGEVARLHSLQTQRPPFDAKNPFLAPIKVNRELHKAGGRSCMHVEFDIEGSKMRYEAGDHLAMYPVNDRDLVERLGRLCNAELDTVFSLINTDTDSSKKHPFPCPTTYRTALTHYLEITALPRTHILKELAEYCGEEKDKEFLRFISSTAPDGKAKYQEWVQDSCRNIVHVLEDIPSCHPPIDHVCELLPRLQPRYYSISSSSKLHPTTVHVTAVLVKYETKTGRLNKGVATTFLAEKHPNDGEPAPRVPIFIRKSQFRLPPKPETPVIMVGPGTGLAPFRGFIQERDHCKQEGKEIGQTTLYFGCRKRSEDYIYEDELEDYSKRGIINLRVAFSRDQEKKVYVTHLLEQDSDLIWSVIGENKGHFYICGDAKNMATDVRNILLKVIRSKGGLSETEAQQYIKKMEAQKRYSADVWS
Experimental: 0.1 g of frozen adult A. gambiae or D. melanogaster flies were added to a pre-chilled mortar and ground to a powder in the presence of liquid nitrogen. The powder was transferred to a 50 ml Falcon tube and 2.5 mls of cold solubilisation buffer (20 mM Tris-Cl pH 8; 10% glycerol; 100 mM KCl and 20 mM CHAPS) added. The suspensions were mixed on a rotary wheel at 4° C. for 2 hrs to solubilise the membrane bound proteins, then centrifuged (5 min; 12,000 rpm; 4° C.) to clarify. […] The clarified whole fly protein extracts were applied to the column and the flow-through collected. The column was washed with 5 ml of solubilisation buffer to remove non-binding proteins. To elute the bound proteins, 3×200 μl of 50 mM 2′ AMP in 0.5×solubilisation buffer was added to the mini-columns, and the 3×200 μl elution fractions collected in Eppendorf tubes. To detect CPR, 25 μl each of solubilised pre-column extract (total fly protein); flow through (unbound protein) and eluted proteins were run on a NuPAGE 4-12% Bis-Tris Gel (Invitrogen; UK) and transferred onto Protran® nitrocellulose membrane (Schleicher & Schuell; Germany) according to the manufacturer's instructions. The membrane was blocked overnight at 4° C. in TBST & 5% milk powder, then incubated for 1 hr with a 1:10000 dilution of anti-Ag CPR primary antibody. […]
Series [5] has as its target T3, A. gambiae CPR. As to the kind of experiment: biochemical. Type of series: biochemical. As to the method: as §1, §2

Broadly, the IC50 is the concentration that gives 50% inhibition. Turning to 2′,5′-ADP [2′-5′-ADP], the IC50 in series [1] (human CPR) was determined as 28 µM; in series [2], 234 µM; in series [3], 10 µM. For the same molecule, the “binding of CPR to 2′-5′-ADP (Sepharose)” value in series [4] was “does not bind”.
For `c1ccc([I+]c2ccccc2)cc1` [DPI, diphenyliodonium chloride], the concentration for half-maximal inhibition (IC50) in series [5] was found to be 28 µM; in series [1] (human CPR), 361 µM.
One may read the Km as the substrate concentration at which the rate is half of its maximum. Take `NC(=O)C1=CN([C@@H]2O[C@H](COP(=O)(O)OP(=O)(O)OC[C@H]3O[C@@H](n4cnc5c(N)ncnc54)[C@H](OP(=O)(O)O)[C@@H]3O)[C@@H](O)[C@H]2O)C=CC1` [NADPH, reduced form of nicotinamide adenine dinucleotide phosphate]: the Michaelis-Menten constant (Km) in series [5] (read-out: Km NADPH (apparent)) is 30 µM; in series [1] (human CPR, read-out: Km NADPH (apparent)) it was 14 µM and 15 µM.
As for cytochrome c, the Michaelis-Menten constant (Km) in series [5] (mosquito enzyme, read-out: Km cytc) worked out at 23 µM; in series [1] (human enzyme, read-out: Km cytc) it was 19 µM.
